The numbers were not newly measured in patent US20220280453A1, “Pharmaceutical Formulation” (Klaria Pharma Holding AB, priority 2019, published 2022), which cites them from elsewhere.

Structures can show the parent of a compound that is named as a salt.

The conditions of data set [1]: ionized form.
The conditions of data set [2]: counterions of strong acids; Shannon effective ionic radii.

As for `CNC1(c2ccccc2Cl)CCCCC1=O` (racemic) [Ketamine, ketamine], the “pH at which most stable in solution” value in data set [1] is recorded as “around 4”.
As for `Br` [Bromide (Br^−), Bromide], in data set [2], the Ionic radius is listed as 1.96 Å.
For the molecule `Cl` [Chloride (Cl^−), Chloride], the Ionic radius in data set [2] is 1.81 Å.
Take `F` [Fluoride (F^−), Fluoride]: in data set [2], the Ionic radius is recorded as 1.33 Å.
For the molecule `I` [Iodide (I^−), Iodide], the Ionic radius in data set [2] is 2.20 Å.
Consider `O=[N+]([O-])O` [Nitrate (NO3^−), Nitrate], for which, in data set [2], the Ionic radius is given as 2.62 Å.
On to `O=S(=O)(O)O` [Sulfate (SO4^2−), Sulfate], for which the Ionic radius in data set [2] is given as 2.89 Å.
